Results on eleven compounds are retold here after patent US4990538A, “Use of toremifene and its metabolites for the reversal of multidrug resistance of cancer cells against cytotoxic drugs” (priority 1989, dated 1991).

For one series, the system named is CHO-Adr cells. The series can be described thus: MTT cell viability assay in doxorubicin resistant CHO-Adr cells. To be noted: CHO-Adr cell line. For orientation: Tetrazolium assays rely on reduction of a dye to a coloured formazan, in cell work by metabolically active cells.
Series [1] deals with MCF-7 oestrogen receptor positive breast cancer cell line. The conditions noted are these: Foster et al, cited from earlier work; for Modulation of multidrug resistance: 10 μM tamoxifen or perhexilene maleate.
A further series deals with MDR cell. To be noted: Ramu et al; cited from earlier work.
The subject of a further series is Human melanoma UV-me-1. Kind of series: Toremifene and doxorubicin in human melanoma UV-me-1. To be noted: for Toremifene and doxorubicin in UV-me-1 (living cells): toremifene 0 μM, 2 days, control 100.
The subject of the next series is HOV-018. The series can be described thus: Number of living cells (bioluminescence), ovarian cancer line HOV-018. To be noted: toremifene 0 μM, 4320 min. The procedure: (§1) Two human ovarian cell lines were established in vitro from fresh serous ovarian cancer tissues. The lines are coded HOV-007 and HOV-018. The cells were cultivated in Eagle's MEM containing 1% unstripped foetal calf serum. The assays were carried out at 37° C. in 5% CO2 on 96 well plates.

A further series has as its system Lewis Lung (LL) tumor. Kind of series: Schedule dependency of antitumor effect in Lewis Lung tumor. As for the experimental part: (§2) Lewis Lung (LL) or melanoma B-16 tumor cells, 2×10^6 cells/animal, were inoculated intramuscularly to female C-57 mice. Tumors were allowed to grow to the mean diameter of 1.5 cm after which toremifene/doxorubicin treatments were started as indicated in the next tables. Tumor size was measured before treatment and after 10 days in 2 dimensions and the mean was considered as tumor diameter. Weight of the animals was also recorded.

A further series relates to B-16 melanoma. The series can be described thus: Schedule dependency of antitumor effect in B-16 melanoma. The procedure:
as §2

The next series concerns HOV-007. The series can be described thus: Number of living cells (bioluminescence), ovarian cancer line HOV-007. To be noted: toremifene 0 μM, 3 days. As for the experimental part:
as §1
presented. Number of cells was quantitated after 3 days'

In a further series the test system is PKC. The conditions noted are these: Horgan et al; cited from earlier work.
A further series relates to rat PKC. The conditions noted are these: O'Brian et al; cited from earlier work.
In a further series the test system is MCF-7/DOX cells. The series can be described thus: Inhibition of cell growth / reversal of MDR in MCF-7/DOX cells (methylene blue). The conditions noted are these: for Effectiveness in reversing MDR: MCF-7/DOX cells, Table 5 and FIG. 7; for Inhibition of cell growth, Actual: 2880 min. Format: cell-based, human.
The next series concerns cultured cells. To be noted: Sutherland et al; cited from earlier work.
For series [2] the following is noted: at dose levels or concentrations required for MDR reversal; cited from earlier work.
[3] abbreviates: doxorubicin 3 mg/kg s.c. days 1-5.
Setting [4] is: doxorubicin 3 mg/kg s.c. days 6-10.
Setting [5] is: drug 0.6 μg/ml +1 μM doxorubicin.

“Also recorded” adds a separate entry of the source. Structures can show the parent of a compound that is named as a salt. Numbered stars: 1 amine (or outer) side, 2 acyl side, 3 side chain; on linkers, the order of the positions; unused ones are H or OH. Bridge positions count the residues as written; N and C are the ends. Square brackets hold non-standard residues; d marks the D form. Peptide text beside a SMILES is read from it. I, II: the chains in the order shown. Actinocin(9to1) = Cc1c2oc3c(C)ccc(C(=O)[*:1])c3nc-2c(C(=O)[*:2])c(N)c1=O; NMeV = CN[C@H](C(=O)O)C(C)C; Sar = CNCC(=O)O

Description for CHO-Adr cells: Initial cell growth studies were carried out to investigate the effect of combination toremifene +doxorubicin in doxorubicin sensitive and resistant cells. Cell cultures were carried out using wild type CHO-K1 cells as well as CHO-Adr cells, the latter being selected by a series of step-wise selections of doxorubicin resistant clones in presence of 0.4 ug/ml of doxorubicin. […] The resistant cells were stable in cell culture in the absence of doxorubicin. Both cell lines were cultivated in Hams F10 medium supplemented with 5% newborn calf serum, 5% foetal calf serum, antibiotics and 3mM glutamine. The cells were maintained as monolayer cultures 37° C. under 5% CO2. Drug sensitivity in CHO-K1and CHO-Adr cells was assessed by a semi-automated colorimetric MTT assay. The assay is dependent on the cellular reduction of MTT (3-U4,5-dimethylthiazol-2-ylA-2,5-diphenyl tertazolium bromide, thiazolyl blue) by the mitochondrial dehydrogenase of viable cells to a blue formazan product which was measured spectrophotometrically. The cells were seeded on 96-well plates and allowed to settle for 12 hours at 37° C. in 5% CO2. Appropriate drug concentrations diluted in growth medium were added for 24 hours. Toremifene was dissolved in 95% ethanol stock solution, doxorubicin stock solution was prepared in water. […] The cells were incubated with the drugs for 24 hours, after which the cells were washed twice with phosphate buffered saline before being placed in 200 μl fresh medium for a further 48 hours. At the end of this incubation 0.1 mg MTT was added to each well and incubated for 4 hours. The medium was carefully aspirated and the crystals were solubilised in 100 μ l DMSO (dimethyl sulfoxide). Absorbances at 540 nm were read immediately on an ELISA Multiskan reader. The results were expressed as a percentage of absorbance of drug treated cells compared to controls.
The effect of AAG in the concentration of 0.1 to 2 mg/ml was assessed on the potentiation produced by toremifene.
Description for MCF-7/DOX cells: The cells were cultivated in 100 ul volumes in 96-well microtiter plates. The principle of the method was to cultivate cells in the presence of the drugs/ drug combinations for 48 hours. After this time the living cells were stained with methylene blue and quantitated spectrophotometrically using microtiter plate reader (Titertek Model MCC/340) interfaced to an Apple IIe computer. Inhibition of the cell growth is expressed as a percentage of absorbance of vehicle treated control cultures.

`Cc1c2oc3c(C)ccc(C(=O)N[C@@H]4C(=O)N[C@H](C(C)C)C(=O)N5CCC[C@H]5C(=O)N(C)CC(=O)N(C)[C@@H](C(C)C)C(=O)O[C@@H]4C)c3nc-2c(C(=O)N[C@@H]2C(=O)N[C@H](C(C)C)C(=O)N3CCC[C@H]3C(=O)N(C)CC(=O)N(C)[C@@H](C(C)C)C(=O)O[C@@H]2C)c(N)c1=O` [actinomycin D, reference compound] (I: T[dV]P[Sar][NMeV] / II: T[dV]P[Sar][NMeV]; ester I:1-I:C, II:1-II:C; linker I:N-II:N via Actinocin(9to1)): in the series on CHO-Adr cells, the “Resistance of the CHO-Adr cell line” value was “cross-resistant”.
As to `C1CCC(C(CC2CCCCN2)C2CCCCC2)CC1` (stereo not shown) [perhexilene maleate, perhexiline maleate], the “Modulation of multidrug resistance” value in [1] is reported as “modulation of multidrug resistance”.
`COc1cccc2c1C(=O)c1c(O)c3c(c(O)c1C2=O)C[C@@](O)(C(C)=O)C[C@@H]3O[C@H]1C[C@H](N)[C@H](O)[C@H](C)O1` [daunorubicin, reference compound]: the “Resistance of the CHO-Adr cell line” value in the series with CHO-Adr cells is “cross-resistant”.
In the case of `CCN(CC)CCOc1ccc(C(=C(Cl)c2ccccc2)c2ccccc2)cc1` [clomiphene], the “Reversal of MDR by triparonol analogues” value in the series on MDR cell is reported as “reversal of MDR”.
Take `COc1cccc2c1C(=O)c1c(O)c3c(c(O)c1C2=O)C[C@@](O)(C(=O)CO)C[C@@H]3O[C@H]1C[C@H](N)[C@H](O)[C@H](C)O1` [doxorubicin]: the “Sensitivity of the cell line” value in the series on Human melanoma UV-me-1 (UV-me-1) is on record as “relatively sensitive”. Further, the results for the “Toremifene and doxorubicin in UV-me-1 (living cells)” value with Human melanoma UV-me-1 (doxorubicin 0.1 μg/ml) and in the series with Human melanoma UV-me-1 (doxorubicin 1.0 μg/ml) were 74 and 9, respectively. The “Number of living cells” value in the series with HOV-018 (doxorubicin 0.1 μg/ml) is given as 96% of control values; with HOV-018 (doxorubicin 0.3 μg/ml) it was 89% of control values; in the series on HOV-007 (doxorubicin 0.1 μg/ml), 87% of control values; with HOV-007 (doxorubicin 0.3 μg/ml), 64% of control values; in the series on HOV-007 (doxorubicin 1.0 μg/ml), 41% of control values. Further, the “Change of body weight” value is reported as -2 g in the series on Lewis Lung (LL) tumor (setting [3]), “+10 g” in the series on Lewis Lung (LL) tumor (setting [4]), -5 g in the series on B-16 melanoma (setting [3]) and -2 g in the series on B-16 melanoma (setting [4]). Moreover, the “Change of tumor diameter” value is “+2.0 mm” with Lewis Lung (LL) tumor (setting [3]) and “+3.7 mm” in the series with Lewis Lung (LL) tumor (setting [4]). Besides, in the series with CHO-Adr cells, the “Resistance of the CHO-Adr cell line” value is “resistant”. Also, the “Change of tumor size” value in the series with B-16 melanoma (setting [3]) is on record as “+1.9 mm”; in the series with B-16 melanoma (setting [4]), “+3.1 mm”.
As to `CC/C(=C(\c1ccccc1)c1ccc(OCCN(C)C)cc1)c1ccccc1` [Tamoxifen, tamoxifen], in [1], the “Modulation of multidrug resistance” value is “modulation of multidrug resistance; also recorded: possess activity for reversing MDR”, the C14-doxorubicin accumulation entry is on record as “no increase in C14-doxorubicin accumulation” and the “Effect of 50 nM estradiol on the effects of tamoxifen” value is “did not attenuate the effects of tamoxifen”. In the series on PKC, the “Inhibition of PKC activity in vivo” value is on record as “inhibition of PKC activity in vivo”. Moreover, the “Inhibition of rat PKC activity in vitro” value in the series with rat PKC was “inhibition of rat PKC activity in vitro”. The “Effectiveness in reversing MDR” value with MCF-7/DOX cells is “almost equally effective”. Also, in the series on cultured cells, the “Reversal by oestradiol of growth inhibitory effects of high doses” value is “could not be reversed by oestradiol”. The “Reversal of MDR by triparonol analogues” value with MDR cell is recorded as “reversal of MDR”. In series [2], the “Safety / toxicity in clinical use” value was “higher toxicity”.
Turning to `COc1cc2c(c(OC)c1OC)-c1ccc(OC)c(=O)cc1[C@@H](NC(C)=O)CC2` [colchicine, reference compound], the “Resistance of the CHO-Adr cell line” value with CHO-Adr cells was “cross-resistant”.
Turning to `CNCCOc1ccc(C(=C(CCCl)c2ccccc2)c2ccccc2)cc1` [N-demethyltoremifene, 4-chloro-1,2-diphenyl-1-(4-(2-(N-methylamino)ethoxy)phenyl)-1-butene], the “Effectiveness in reversing MDR” value in the series with MCF-7/DOX cells is given as “almost equally effective”. Moreover, in the series on MCF-7/DOX cells (setting [5]), the “Inhibition of cell growth, Actual” value is listed as 28 % control and the “Potential (potentiation of doxorubicin activity)” value (“Potential” below) came out at 33 % control. Further, in the series on MCF-7/DOX cells (drug […] +1 μM doxorubicin), the “Inhibition of cell growth, Actual” value came to 40 % control and the “Potential” value is recorded as 43 % control.
As to `CN(C)CCOc1ccc(C(=C(CCCl)c2ccccc2)c2ccc(O)cc2)cc1` [4-hydroxytoremifene, 4-chloro-1-(4-hydroxyphenyl)-2-phenyl-1-(4-(2-(N,N-dimethylamino)ethoxy)phenyl)-1-butene], the “Effectiveness in reversing MDR” value in the series on MCF-7/DOX cells is “slightly less effective”. In the series with MCF-7/DOX cells (setting [5]), the “Inhibition of cell growth, Actual” value stood at 28 % control and the “Potential” value is 8 % control. For the same compound, in the series on MCF-7/DOX cells (drug […] +1 μM doxorubicin), the “Inhibition of cell growth, Actual” value amounted to 45 % control and the “Potential” value is 10 % control.
As for `COc1ccc2c(c1)CCC(c1ccccc1)=C2c1ccc(OCCN2CCCC2)cc1` [nafoxidine], in the series on MDR cell, the “Reversal of MDR by triparonol analogues” value was “reversal of MDR”.
On to `CCC(=C(c1ccc(O)cc1)c1ccc(OCCN(C)C)cc1)c1ccccc1` [4-hydroxy tamoxifen], for which the “Inhibition of rat PKC activity in vitro” value with rat PKC is “inhibition of rat PKC activity in vitro”.
